Measured values: article PMC9333195, “Discovery of 2-Phenylquinoline-4-Carboxylic Acid Derivatives as Novel Histone Deacetylase Inhibitors” (Frontiers in Chemistry, 2022)

Columns and labels:
[1] = system: Hela nucleus extract containing a mixture of HDAC isoforms; assay: In vitro HDAC inhibitory assay, HeLa cell nuclear extract screening at 2 µM; format: biochemical; conditions: 2.0 µM compound, mean of three experiments
Procedure: The HDAC enzyme inhibitory activities of synthesized compounds were evaluated against Hela nucleus extract containing a mixture of HDAC isoforms. Percentage inhibitory rate (PIR) was calculated to determine the activity of tested compounds (Table 1).
All HDAC enzymes were purchased from BPS Bioscience. […] The reaction was terminated by adding 100 μl of imaging agent containing trypsin and trichostatin A (TSA). After standing for 20 min, the fluorescence intensity was measured at the excitation and emission wavelengths of 360 and 460 nm with a microplate reader. The inhibition rate was calculated from the fluorescence intensity readings of the test wells relative to the control wells, and the IC50 curve and value were determined by GraphPad Prism 6.0 software.

K562 cells = assay: CCK-8 antiproliferative assay, K562; conditions: for inhibition at 2 µM: Homo sapiens, K562, read-out: K562 percentage inhibitory rate; for K562 percentage inhibitory rate: 2.0 µM compound, K562 cells, CCK-8, mean of three experiments
Procedure: The proliferation of cancer cells was tested by CCK-8 assay. Briefly, cells were seeded in a 96-well plate with about 5 × 10^3 cells in each well. In the K652 cell screening, cells were treated with 2.0 μM of tested compounds. […] The light absorbance at 450 nm was measured by using an Opsys microplate reader (Dynex Technologies, Chantilly, VA, United States).

| Compound | HDACs percentage inhibitory rate (PIR) [1] | melting point | inhibition at 2 µM (K562 cells) | K562 percentage inhibitory rate (K562 cells) |
| --- | --- | --- | --- | --- |
| Cc1cccc(-c2cc(C(=O)N3CCN(c4ccc(C(=O)NO)cc4)CC3)c3ccccc3n2)c1 [Compound D9, N-Hydroxy-4-(4-(2-(m-Tolyl)Quinoline-4-Carbonyl)Piperazin-1-yl)Benzamide] | 49.33 ± 0.82% | 199.2 to 199.7 °C | 45.81 ± 0.33% | – |
| O=C(NO)c1ccc(N2CCN(C(=O)c3cc(-c4ccc(Br)cc4)nc4ccccc34)CC2)cc1 [Compound D2, 4-(4-(2-(4-Bromophenyl)Quinoline-4-Carbonyl)Piperazin-1-yl)-N-Hydroxybenzamide] | 59.50 ± 0.35% | 231.7 to 232.8 °C | 48.8 ± 1.32% | – |
| O=C(NO)c1ccc(N2CCN(C(=O)c3cc(-c4cccc(Cl)c4)nc4ccccc34)CC2)cc1 [Compound D8, 4-(4-(2-(3-Chlorophenyl)Quinoline-4-Carbonyl)Piperazin-1-yl)-N-Hydroxybenzamide] | 51.81 ± 4.07% | 207.1 to 208.9 °C | 42.9 ± 1.02% | – |
| O=C(NO)c1ccc(N2CCN(C(=O)c3cc(-c4ccc(NC(=O)c5ccccc5F)cc4)nc4ccccc34)CC2)cc1 [Compound D22, 2-Fluoro-N-(4-(4-(4-(4-(Hydroxycarbamoyl)Phenyl)Piperazine-1-Carbonyl)Quinolin-2-yl)Phenyl)Benzamide] | 56.86 ± 1.79% | 163.5 to 164.2 °C | 65.1 ± 1.34% | – |
| CN(C)c1ccc(-c2cc(C(=O)N3CCN(c4ccc(C(=O)NO)cc4)CC3)c3ccccc3n2)cc1 [Compound D18, 4-(4-(2-(4-(Dimethylamino)Phenyl)Quinoline-4-Carbonyl)Piperazin-1-yl)-N-Hydroxybenzamide] | 48.37 ± 0.35% | 200.6 to 201.2 °C | 48.3 ± 0.31% | – |
| O=C(NO)c1ccc(N2CCN(C(=O)c3cc(-c4ccc(NC(=O)c5ccccc5Cl)cc4)nc4ccccc34)CC2)cc1 [Compound D23, 2-Chloro-N-(4-(4-(4-(4-(Hydroxycarbamoyl)Phenyl)Piperazine-1-Carbonyl)Quinolin-2-yl)Phenyl)Benzamide] | 62.91 ± 2.26% | 167.2 to 167.8 °C | 61.92 ± 0.42% | – |
| O=C(NO)c1ccc(N2CCN(C(=O)c3cc(-c4ccc(C(F)(F)F)cc4)nc4ccccc34)CC2)cc1 [Compound D7, N-Hydroxy-4-(4-(2-(4-(Trifluoromethyl)Phenyl)Quinoline-4-Carbonyl)Piperazin-1-yl)Benzamide] | 52.60 ± 2.37% | 212.7 to 213.9 °C | 40.3 ± 1.2% | – |
| N-Hydroxy-4-(4-(2-(o-Tolyl)Quinoline-4-Carbonyl)Piperazin-1-yl)Benzamide [Compound D16] | 49.04 ± 31.22% | – | – | 15.26 ± 0.33% |
| COc1ccccc1-c1cc(C(=O)N2CCN(c3ccc(C(=O)NO)cc3)CC2)c2ccccc2n1 [Compound D13, N-Hydroxy-4-(4-(2-(2-Methoxyphenyl)Quinoline-4-Carbonyl)Piperazin-1-yl)Benzamide] | 54.24 ± 0.18% | 224 to 224.9 °C | 43.81 ± 0.26% | – |
| COc1cccc(-c2cc(C(=O)N3CCN(c4ccc(C(=O)NO)cc4)CC3)c3ccccc3n2)c1 [Compound D11, N-Hydroxy-4-(4-(2-(3-Methoxyphenyl)Quinoline-4-Carbonyl)Piperazin-1-yl)Benzamide] | 63.49 ± 4.61% | 179.8 to 180.9 °C | 46.09 ± 0.43% | – |
| O=C(NO)c1ccc(N2CCN(C(=O)c3cc(-c4ccc(NC(=O)c5cccc(F)c5)cc4)nc4ccccc34)CC2)cc1 [Compound D26, 3-Fluoro-N-(4-(4-(4-(4-(Hydroxycarbamoyl)Phenyl)Piperazine-1-Carbonyl)Quinolin-2-yl)Phenyl)Benzamide] | 49.99 ± 0.32% | 232.6 to 232.9 °C | 43.1 ± 0.64% | – |
| O=C(NO)c1ccc(N2CCN(C(=O)c3cc(-c4ccc(NC(=O)c5ccc(F)cc5)cc4)nc4ccccc34)CC2)cc1 [Compound D20, 4-Fluoro-N-(4-(4-(4-(4-(Hydroxycarbamoyl)Phenyl)Piperazine-1-Carbonyl)Quinolin-2-yl)Phenyl)Benzamide] | 48.46 ± 0.68% | 178.3 to 180.3 °C | 45.9 ± 1.34% | – |
| O=C(NO)c1ccc(N2CCN(C(=O)c3cc(-c4ccc(Cl)cc4)nc4ccccc34)CC2)cc1 [Compound D3, 4-(4-(2-(4-Chlorophenyl)Quinoline-4-Carbonyl)Piperazin-1-yl)-N-Hydroxybenzamide] | 49.43 ± 3.73% | 228.1 to 229.2 °C | 46.4 ± 0.53% | – |
| O=C(NO)c1ccc(N2CCN(C(=O)c3cc(-c4ccc(F)cc4)nc4ccccc34)CC2)cc1 [Compound D4, 4-(4-(2-(4-Fluorophenyl)Quinoline-4-Carbonyl)Piperazin-1-yl)-N-Hydroxybenzamide] | 47.79 ± 1.34% | 163.5 to 164.8 °C | 32.43 ± 0.2% | – |
| O=C(NO)c1ccc(N2CCN(C(=O)c3cc(-c4ccccc4)nc4ccccc34)CC2)cc1 [Compound D1, N-Hydroxy-4-(4-(2-Phenylquinoline-4-Carbonyl)Piperazin-1-yl)Benzamide] | 57.96 ± 0.43% | 213.8 to 214.8 °C | 46.58 ± 0.35% | – |
| O=C(NO)c1ccc(N2CCN(C(=O)c3cc(-c4cc(F)cc(F)c4)nc4ccccc34)CC2)cc1 [Compound D12, 4-(4-(2-(3,5-Difluorophenyl)Quinoline-4-Carbonyl)Piperazin-1-yl)-N-Hydroxybenzamide] | 74.91 ± 0.35% | 221.8 to 222 °C | 51.8 ± 1.35% | – |
| O=C(NO)c1ccc(N2CCN(C(=O)c3cc(-c4cc(F)ccc4F)nc4ccccc34)CC2)cc1 [Compound D27, 4-(4-(2-(2,5-Difluorophenyl)Quinoline-4-Carbonyl)Piperazin-1-yl)-N-Hydroxybenzamide] | 59.30 ± 0.74% | 196.9 to 198 °C | 63.79 ± 0.13% | – |
| O=C(NO)c1ccc(N2CCN(C(=O)c3cc(-c4ccccc4Cl)nc4ccccc34)CC2)cc1 [Compound D14, 4-(4-(2-(2-Chlorophenyl)Quinoline-4-Carbonyl)Piperazin-1-yl)-N-Hydroxybenzamide] | 49.74 ± 2.06% | 235 to 236.4 °C | 48.3 ± 1.02% | – |
| CSc1ccc(-c2cc(C(=O)N3CCN(c4ccc(C(=O)NO)cc4)CC3)c3ccccc3n2)cc1 [Compound D5, N-Hydroxy-4-(4-(2-(4-(Methylthio)Phenyl)Quinoline-4-Carbonyl)Piperazin-1-yl)Benzamide] | 50.93 ± 0.93% | 177.2 to 179.6 °C | 47.4 ± 1.11% | – |
| O=C(NO)c1ccc(N2CCN(C(=O)c3cc(-c4ccc(NC(=O)c5ccc(F)cc5F)cc4)nc4ccccc34)CC2)cc1 [Compound D24, 2,4-Difluoro-N-(4-(4-(4-(4-(Hydroxycarbamoyl)Phenyl)Piperazine-1-Carbonyl)Quinolin-2-yl)Phenyl)Benzamide] | 66.16 ± 1.57% | 175.3 to 176.3 °C | 31.1 ± 0.54% | – |
| O=C(NO)c1ccc(N2CCN(C(=O)c3cc(-c4ccc(NC(=O)c5cccc(Br)c5)cc4)nc4ccccc34)CC2)cc1 [Compound D21, 3-Bromo-N-(4-(4-(4-(4-(Hydroxycarbamoyl)Phenyl)Piperazine-1-Carbonyl)Quinolin-2-yl)Phenyl)Benzamide] | 50.26 ± 1.41% | 170.5 to 170.8 °C | 47.6 ± 0.92% | – |
| O=C(NO)c1ccc(N2CCN(C(=O)c3cc(-c4ccccc4F)nc4ccccc34)CC2)cc1 [Compound D10, 4-(4-(2-(2-Fluorophenyl)Quinoline-4-Carbonyl)Piperazin-1-yl)-N-Hydroxybenzamide] | 58.52 ± 0.64% | 172.5 to 173.3 °C | 40.9 ± 1.22% | – |
| 4-(4-(2-(4-Fluoro-3-Methylphenyl)Quinoline-4-Carbonyl)Piperazin-1-yl)-N-Hydroxybenzamide [Compound D17] | 47.41 ± 1.03% | – | – | 41.91 ± 0.13% |
| COc1ccc(-c2cc(C(=O)N3CCN(c4ccc(C(=O)NO)cc4)CC3)c3ccccc3n2)cc1 [Compound D6, N-Hydroxy-4-(4-(2-(4-Methoxyphenyl)Quinoline-4-Carbonyl)Piperazin-1-yl)Benzamide] | 52.31 ± 3.09% | 184.3 to 186.8 °C | 51.55 ± 0.25% | – |
| 3,5-Difluoro-N-(4-(4-(4-(4-(Hydroxycarbamoyl)Phenyl)Piperazine-1-Carbonyl)Quinolin-2-yl)Phenyl)Benzamide [Compound D25] | 54.74 ± 1.41% | – | – | 37.64 ± 0.13% |
| O=C(NO)c1ccc(N2CCN(C(=O)c3cc(-c4cccc(F)c4)nc4ccccc34)CC2)cc1 [Compound D15, 4-(4-(2-(3-Fluorophenyl)Quinoline-4-Carbonyl)Piperazin-1-yl)-N-Hydroxybenzamide] | 58.80 ± 2.95% | 225 to 226.3 °C | 26.2 ± 0.62% | – |
